Counter-ions that a name gives are not always drawn.

For orientation: IC50 means the concentration that inhibits the measured activity by half. High values mean lower potency, low ones higher potency.

The subject of one experiment is HCT-116 cells. Description: HCT assay: real-time proliferation assay using xCELLigence system. Conditions: xCELLigence impedance. Type of experiment: cell-based. As to the method: The compounds were evaluated in a proliferation assay using HCT-116 cells using an xCELLigence system. Briefly, the xCELLigence system monitors cellular events in real time by measuring electrical impedance across interdigitated micro-electrodes integrated on the bottom of tissue culture E-Plates. The impedance measurement provides quantitative information about the biological status of the cells, including cell number, viability, and morphology. Real-time proliferation assays were then to determine the IC50 values. All proliferation assays start 24 hours after the transfection.

In experiment [1] the test system is GalN/LPS fulminant liver injury. The experiment can be described thus: GalN/LPS fulminant liver injury model, Study a (survival). Type of experiment: in vivo, C57BL/6 mice. The method, then: A Galactosamine/Liposaccharide (GalN/LPS) fulminant liver injury model may be used to evaluate the anti-inflammatory, anti-TNFα and hepatoprotective properties of the compound of the description.
Mice were maintained under 12 h light/dark cycles with unlimited access to food and water. Study was performed in 6- to 14-week old male mice. C57BL/6 mice were used. Mice are first injected with pentamidine or Example 2 compound (IP injection). 30 minutes later, liver injury is induced by intraperitoneal injections of 100 μg/kg of LPS (E. coli 0111:B4) and 700 mg/kg of GalN (Sigma) dissolved in phosphate-buffered saline (PBS).
The tested compounds were be dosed IP 30-minutes prior to the co-treatment with galactosamine (GalN) and endotoxin (Lipopolysaccharide) LPS. Mice were either sacrificed at 6.5 hours after GalN/LPS for ALT analysis, or kept for longer periods to evaluate survival. The analysis of alanine transaminase (ALT) serum levels and histological observations allow the evaluation of the hepatoprotective, anti-TNF-α, anti-inflammatory and/or anti-fibrotic activity.
Survival was evaluated at two time points, i.e. 8 and 23 hours. In controls group receiving PBS prior to the GalN/LPS liver injury, no mice survived 8 hours. […] In the case of trihexamidine isethionate, all mice survived more than 23 hours with 10 mg/kg (8.6 μmole/kg) doses.

The subject of experiment [2] is DSS-induced acute colitis. The experiment can be described thus: DSS-induced acute colitis in mice (Disease Activity Index). Type of experiment: in vivo, C57BL/6 ELITE mice. As to conditions: 2.5% DSS; 2.5 and 5 mg/kg IP q.d. D1-D6, termination D7; FIG. 5. The method, then:
Dextran Sulfate Sodium 2.5% stocks were prepared by adding tap water in the pre-weighed powder. DSS solutions will be changed every 3 days for all groups, i.e. on Day 1 (D1) and Day 4 (D4).
Formulations for Intraperitoneal Administration: • Vehicle: sterile double distilled water (DDW) • For Pentamidine (Penta) and Compounds 2 and 4, the compounds were dissolved in DDW and dosed at 2 mL/kg to yield the indicated doses. In-Vivo Study
Male C57BL/6 ELITE mice of ˜7-8 weeks old were used. After 5-day acclimatization period in animal facility, all mice were weighed and given tap water containing 2.5% DSS on Day 1, treatment also starts on Day 1.
Animals were dosed from D1 to D6, once daily by IP injection (2 mL/kg). Animals were terminated on D7. The Disease Activity Index (DAI) scale is based on the evaluation of different parameters characterizing experimental colitis induction and progression. Body weight, presence of gross blood in the feces and stool consistency will be recorded daily.
• Weight loss: 0=none; 1=1 to 5%; 2=5 to 10%; 3=_10 to 20%; 4=>20% • Stool consistency: 0=normal; 2=loose; 4=diarrhea • Rectal bleeding: 0=normal; 2=occult bleeding; 4=gross bleeding
On Day 7, mice will be weighed and disease scores evaluated, and then euthanized by CO2 inhalation.

Experiment [3] deals with GalN/LPS fulminant liver injury. Description: GalN/LPS fulminant liver injury model, Study b (serum ALT). Conditions: for Hepatoprotection at lower doses: 10 mg/kg (4.3 and 8.6 μmole/kg) for C2, 5 and 10 mg/kg (3.3 and 6.6 μmole/kg) for C4, 5 mg/kg (6.3 mole/kg [sic]) for C5; for Hepatoprotection in the model (low ALT activity levels following GalN/LPS): FIG. 3; for ALT: GalN-LPS 700 mg/kg - 10 μg/kg, 6 hours post injury, WFI control 5989. Type of experiment: in vivo, C57BL/6 mice. The method, then: (§1) Mice were maintained under 12 h light/dark cycles with unlimited access to food and water. Study was performed in 6- to 14-week old male mice. C57BL/6 mice were used. Mice are first injected with pentamidine or Example 2 compound (IP injection). […]
(§2) All doses were administered IP to six mice (n=6), 30 minutes prior to the injection of the GalN and LPS, when applicable to the group. Blood samples were collected exactly 6 hours post GalN/LPS injections, or 6.5 hours after vehicle injections.
(§3) The tested compounds were dosed IP 30 minutes prior to the co-treatment with galactosamine (GalN) and endotoxin (Lipopolysaccharide) LPS. Mice were sacrificed at 6 hours after GalN/LPS for ALT analysis. The analysis of alanine transaminase (ALT) serum levels allows the evaluation of the hepatoprotective, anti-TNF-α, anti-inflammatory and/or anti-fibrotic activity.

The test system is the same in experiment [4]. Description: GalN/LPS fulminant liver injury model, Study c (serum ALT). The class given is in vivo, C57BL/6 mice. As to conditions: for ALT: GalN-LPS 700 mg/kg - 10 μg/kg, 6 hours post injury, WFI control 4403. The method, then: as §1, §2, §3
[5] abbreviates: Homo sapiens, HCT-116, HCT-116 cells.

For the compound `N=C(N)c1ccc(OCCCCCCOc2cc(OCCCCCCOc3ccc(C(=N)N)cc3)cc(OCCCCCCOc3ccc(C(=N)N)cc3)c2)cc1` [Compound 1, Trihexamidine Formate], the midpoint of inhibition in the experiment on HCT-116 cells (setting [5]), the IC50, lay at 1.9 µM.
`N=C(N)c1ccc(OCCCCCCOc2cc(OCCCCCCOc3ccc(C(=N)N)cc3)cc(OCCCCCCOc3ccc(C(=N)N)cc3)c2)cc1` [Compound 2, Trihexamidine Isethionate]: the “Survival (all mice) post GalN/LPS” value in experiment [1] (10 mg/kg (8.6 μmole/kg) IP 30 min before GalN/LPS) is “more than 23 hours”. In experiment [2], the Disease activity index entry is given as “reduced the disease activity index”. For the same compound, inhibition in the experiment on HCT-116 cells (HCT-116 cells) was half-maximal at 2.66 µM (IC50). Besides, in experiment [3], the “Hepatoprotection at lower doses” value is given as “Significant hepatoprotection” and the “Hepatoprotection in the model (low ALT activity levels following GalN/LPS)” value is reported as “hepatoprotective”. Moreover, in experiment [3] (IP dose 5 mg/kg in WFI), the ALT is 2184 IU/L. Further, the ALT in experiment [3] (IP dose 10 mg/kg in WFI) came to 890 IU/L.
Consider `N=C(N)c1ccc(OCCCCCCCCOc2cc(OCCCCCCCCOc3ccc(C(=N)N)cc3)cc(OCCCCCCCCOc3ccc(C(=N)N)cc3)c2)cc1` [Compound 3, Trioctamidine Isethionate], for which, in the experiment on HCT-116 cells (setting [5]), half-maximal inhibition (IC50) was put at 6.67 µM.
Take `N=C(N)c1ccc(OCCCOc2cc(OCCCOc3ccc(C(=N)N)cc3)cc(OCCCOc3ccc(C(=N)N)cc3)c2)cc1` [Compound 4, Tripropamidine Formate]: the Disease activity index entry in experiment [2] was “reduced the disease activity index”. The IC50 in the experiment with HCT-116 cells (setting [5]) was 38 µM. In addition, the “Hepatoprotection in the model (low ALT activity levels following GalN/LPS)” value in experiment [4] (Study c, FIG. 4) is listed as “dose-dependent hepatoprotection”; in experiment [3], “hepatoprotective”. The “Hepatoprotection at stated doses” value in experiment [4] (Study c, 0.625 mg/kg, 1.25 mg/kg and 2.5 mg/kg IP) is listed as “Significant hepatoprotection”. The ALT in experiment [4] (Study c, IP dose 0.625 mg/kg in WFI) was 1755 IU/L; in experiment [4] (Study c, IP dose 1.25 mg/kg in WFI), 1090 IU/L; in experiment [4] (Study c, IP dose 2.5 mg/kg in WFI), 555 IU/L; in experiment [3] (IP dose 5 mg/kg in WFI), 731 IU/L. The “Hepatoprotection at lower doses” value in experiment [3] is recorded as “Significant hepatoprotection”.
As to `N=C(N)c1ccc(OCCCCCOc2ccc(C(=N)N)cc2)cc1` [Pentamidine, pentamidine, reference compound], the “Survival at 8 hours post GalN/LPS” value in experiment [1] (25 mg/kg IP 30 min before GalN/LPS) is given as “only the 40 mg/kg (67 μmole/kg) group benefited”; in experiment [1] (40 mg/kg (67 μmole/kg) IP 30 min before GalN/LPS, PBS controls: no mice survived 8 hours), “benefited from hepatoprotective properties”. Also, the “Survival at 23 hours post GalN/LPS” value in experiment [1] (25 and 40 mg/kg IP 30 min before GalN/LPS) is given as “none survived”. Besides, the “Hepatoprotection (positive control)” value was “benefited from hepatoprotective properties” in experiment [4] (Study c text, 50 mg/kg (84 μmole/kg)) and “benefited from hepatoprotective properties” in experiment [3] (50 mg/kg (84 μmole/kg)). The compound also came in with an ALT in experiment [3] (IP dose 50 mg/kg in WFI) of 306 IU/L.
Turning to “Triamidine Formate (Chain Average Mn 1000) [Compound 5]”, the “HCT-116 IC50” value in the experiment on HCT-116 cells (HCT-116 cells) was “∞”. Further, in experiment [3], the “Hepatoprotection at lower doses” value is on record as “Significant hepatoprotection” and the “Hepatoprotection in the model (low ALT activity levels following GalN/LPS)” value was “hepatoprotective”. The compound further yielded an ALT in experiment [3] (IP dose 5 mg/kg in WFI) of 1072 IU/L. In experiment [3] (IP dose 10 mg/kg in WFI), the ALT worked out at 689 IU/L.

For the origin of these results see patent US11098009B2, “Amidine substituted analogues and uses thereof” (Verlyx Pharma Inc., priority 2016, dated 2021).
